For ten compounds, IC50 results are on record in US9206183B2, “Substituted pyrazolo[1,5-a]pyridines as JAK inhibitors” (ALMIRALL, S.A., priority 2010, dated 2015).

Holding throughout (type): biochemical
In one assay the target is T1, human JAK3 (aa 795-1124) (Homo sapiens, UniProt P52333).
T1 construct: JAK3 (aa 795-1124); GST (N); purchased Carna Biosciences; host or cells: baculovirus expression system
Kind of assay: In vitro JAK kinase assay (TR-FRET), JAK3. As to conditions: catalytic domain GST-fusion; ATP 0.6 μM; peptide 140 nM; 30 minutes at room temperature. The method, then:
(§1) Compounds were screened for their ability to inhibit JAK1, JAK2 and JAK3 using the assays as indicated below.
(§2) The catalytic domains of human JAK1 (aa 850-1154), JAK2 (aa 826-1132), JAK3 (aa 795-1124) and Tyk2 (aa 871-1187) were expressed as N-terminal GST-fusion proteins using a baculovirus expression system and were purchased from Carna Biosciences. The enzymatic activity was assayed using as substrate a biotinylated peptide, poly (GT)-Biotin (CisBio). The peptide concentration in the reactions was 60 nM for JAK1, 20 nM for JAK2, 140 nM for JAK3 and 50 nM for Tyk2. The degree of phosphorylation was detected by TR-FRET (time-resolved fluorescence energy transfer). IC50s of compounds were measured for each kinase in a reaction mixture containing the enzyme, ATP and the peptide in 8 mM MOPS (pH 7.0), 10 mM MgCl2, 0.05% β-mercaptoethanol, 0.45 mg/ml BSA. The ATP concentration in the reactions was 3 μM for JAK1, 0.2 μM for JAK2, 0.6 μM for JAK3 and 1.8 μM for Tyk2. The enzymatic reactions took place for 30 minutes at room temperature. Then, the reactions were stopped with 20 μL of quench detection buffer (50 mM HEPES, 0.5 M KF, EDTA 0.25 M, 0.1% (w/v) BSA, pH 7.5) containing 0.115 μg/mL of anti-phosphoTyr (PT66)-Cryptate (CisBio) and a variable concentration of SA-XL665 (CisBio) to keep the SA-B ratio constant. Incubate for 3 h and read on Victor 2V spectrofluorometer (PerkinElmer) set to read fluorescence resonance energy transfer.
In general terms: In TR-FRET formats the signal depends on donor and acceptor labels being close together.

The next assay concerns the target T2, human JAK2 (aa 826-1132) (Homo sapiens, UniProt O60674).
T2 construct: JAK2 (aa 826-1132); GST (N); purchased Carna Biosciences; host or cells: baculovirus expression system
Briefly: In vitro JAK kinase assay (TR-FRET), JAK2. As to conditions: catalytic domain GST-fusion; ATP 0.2 μM; peptide 20 nM; 30 minutes at room temperature. The method, then: as §1, §2

The next assay concerns the target T3, human JAK1 (aa 850-1154) (Homo sapiens, UniProt P23458).
T3 construct: human JAK1 (aa 850-1154); GST (N); purchased Carna Biosciences; host or cells: baculovirus expression system
Briefly: In vitro JAK kinase assay (TR-FRET), JAK1. As to conditions: catalytic domain GST-fusion; ATP 3 μM; peptide 60 nM; 30 minutes at room temperature. The method, then: as §1, §2

T2 sequence (O60674 826-1132): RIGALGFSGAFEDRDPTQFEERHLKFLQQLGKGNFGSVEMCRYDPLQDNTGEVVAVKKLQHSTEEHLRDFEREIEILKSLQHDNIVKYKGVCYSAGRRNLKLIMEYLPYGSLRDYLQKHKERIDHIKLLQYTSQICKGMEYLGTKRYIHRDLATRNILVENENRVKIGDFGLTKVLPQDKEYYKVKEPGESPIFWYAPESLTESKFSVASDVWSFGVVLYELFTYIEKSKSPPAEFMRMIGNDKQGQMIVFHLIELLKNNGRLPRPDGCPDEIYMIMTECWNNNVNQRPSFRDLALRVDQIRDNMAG
T1 sequence (P52333 795-1124): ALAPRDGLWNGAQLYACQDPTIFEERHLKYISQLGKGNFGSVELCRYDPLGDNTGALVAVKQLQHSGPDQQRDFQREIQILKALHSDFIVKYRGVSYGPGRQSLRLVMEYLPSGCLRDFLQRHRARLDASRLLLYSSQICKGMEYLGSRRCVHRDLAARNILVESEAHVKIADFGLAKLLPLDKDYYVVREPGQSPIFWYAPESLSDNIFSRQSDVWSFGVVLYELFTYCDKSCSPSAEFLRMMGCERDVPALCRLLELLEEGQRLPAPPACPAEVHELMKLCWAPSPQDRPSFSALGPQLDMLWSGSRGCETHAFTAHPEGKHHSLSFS
T3 sequence (P23458 850-1154): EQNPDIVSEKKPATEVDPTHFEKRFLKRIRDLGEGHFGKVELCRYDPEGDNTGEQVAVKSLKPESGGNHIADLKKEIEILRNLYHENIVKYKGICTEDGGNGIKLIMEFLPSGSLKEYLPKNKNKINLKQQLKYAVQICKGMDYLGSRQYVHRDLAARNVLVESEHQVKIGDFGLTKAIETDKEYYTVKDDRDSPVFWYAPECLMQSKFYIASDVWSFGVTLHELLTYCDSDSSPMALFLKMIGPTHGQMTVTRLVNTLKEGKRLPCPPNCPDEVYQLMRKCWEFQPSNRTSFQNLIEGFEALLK

Turning to `COC[C@H](C)Nc1ccnc(-c2cnn3ccc(C#N)cc23)n1` [Example 5, 3-(4-{[(1S)-2-Methoxy-1-methylethyl]amino}pyrimidin-2-yl)pyrazolo[1,5-a]pyridine-5-carbonitrile], the IC50 on human JAK3 (aa 795-1124) is less than 100 nM; at human JAK2 (aa 826-1132), less than 100 nM; at human JAK1 (aa 850-1154), 100 to 1000 nM.
As to `N#Cc1ccn2ncc(-c3nccc(NCC(F)(F)F)n3)c2c1` [Example 7, 3-{4-[(2,2,2-Trifluoroethyl)amino]pyrimidin-2-yl}pyrazolo[1,5-a]pyridine-5-carbonitrile], the IC50 was 100 to 1000 nM against human JAK3 (aa 795-1124), less than 100 nM against human JAK2 (aa 826-1132) and more than 1000 nM at human JAK1 (aa 850-1154).
As for `N#CCC(=O)N1CCC[C@@H](Nc2ccnc(-c3cnn4ccc(C#N)cc34)n2)C1` [Example 14, 3-(4-{[(3R)-1-(Cyanoacetyl)piperidin-3-yl]amino}pyrimidin-2-yl)pyrazolo[1,5-a]pyridine-5-carbonitrile], the IC50 against human JAK3 (aa 795-1124) is less than 100 nM; against human JAK2 (aa 826-1132) it was less than 100 nM; against human JAK1 (aa 850-1154), 100 to 1000 nM.
As to `N#Cc1ccn2ncc(-c3nccc(N[C@H]4CC[C@H](O)CC4)n3)c2c1` [Example 19, 3-(4-((Trans)-4-Hydroxycyclohexylamino)pyrimidin-2-yl)pyrazolo[1,5-a]pyridine-5-carbonitrile], the IC50 on human JAK3 (aa 795-1124) is less than 100 nM; against human JAK2 (aa 826-1132), less than 100 nM; at human JAK1 (aa 850-1154), 100 to 1000 nM.
With `C[C@H](Nc1ccnc(-c2cnn3ccncc23)n1)c1ccccc1` [Example 21, (S)—N-(1-phenylethyl)-2-(pyrazolo[1,5-a]pyrazin-3-yl)pyrimidin-4-amine], the IC50 against human JAK3 (aa 795-1124), against human JAK2 (aa 826-1132) and at human JAK1 (aa 850-1154) was less than 100 nM throughout.
In the case of `N#Cc1ccc(N2CCC[C@@H](Nc3ccnc(-c4cnn5ccncc45)n3)C2)nc1` [Example 25, 6-{(3R)-3-[(2-Pyrazolo[1,5-a]pyrazin-3-ylpyrimidin-4-yl)amino]piperidin-1-yl}nicotinonitrile], the IC50 at human JAK3 (aa 795-1124) was less than 100 nM; on human JAK2 (aa 826-1132) it was less than 100 nM; on human JAK1 (aa 850-1154) it was 100 to 1000 nM.
In the case of `CN(c1ccnc(-c2cnn3ccncc23)n1)[C@@H]1CCCN(C(=O)CC#N)C1` [Example 27, 3-{(3R)-3-[Methyl(2-pyrazolo[1,5-a]pyrazin-3-ylpyrimidin-4-yl)amino]piperidin-1-yl}-3-oxopropanenitrile], the IC50 was less than 100 nM against human JAK3 (aa 795-1124), less than 100 nM on human JAK2 (aa 826-1132) and 100 to 1000 nM against human JAK1 (aa 850-1154).
As to `O=C(CC(F)(F)F)N1CCC[C@@H](Nc2nc(-c3cnn4ccncc34)ncc2F)C1` [Example 30, 5-Fluoro-2-pyrazolo[1,5-a]pyrazin-3-yl-N-[(3R)-1-(3,3,3-trifluoropropanoyl)piperidin-3-yl]pyrimidin-4-amine], the IC50 against human JAK3 (aa 795-1124) is less than 100 nM; against human JAK2 (aa 826-1132) it was less than 100 nM; against human JAK1 (aa 850-1154) it was 100 to 1000 nM.
In the case of `Nc1cnc(-c2cnn3ccncc23)nc1NC1CCOCC1` [Example 35, 2-(Pyrazolo[1,5-a]pyrazin-3-yl)-N^4-(tetrahydro-2H-pyran-4-yl)pyrimidine-4,5-diamine], the IC50 was 100 to 1000 nM against human JAK3 (aa 795-1124), less than 100 nM against human JAK2 (aa 826-1132) and 100 to 1000 nM at human JAK1 (aa 850-1154).
On to `C[C@H](Nc1nc(-c2cnn3ccncc23)ncc1Cl)c1ccc(F)cn1` [Example 37, (S)-5-Chloro-N-(1-(5-fluoropyridin-2-yl)ethyl)-2-(pyrazolo[1,5-a]pyrazin-3-yl)pyrimidin-4-amine], for which the IC50 against human JAK3 (aa 795-1124), against human JAK2 (aa 826-1132) and on human JAK1 (aa 850-1154) was less than 100 nM in each case.

As usually defined, the IC50 is the concentration at which inhibition is half-maximal. High values mean a need for much substance, low ones inhibition by little substance.
